Measurements from ChEMBL document CHEMBL1955826, “Acetylenic acid analogues from the edible mushroom Chanterelle (Cantharellus cibarius) and their effects on the gene expression of peroxisome proliferator-activated receptor-gamma target genes” (Bioorg Med Chem Lett, 2012).
Calls of active or inactive are those of the source. No cut-off for these calls is given here.

Tests used:
[1] = tested on: HepG2; experiment: Upregulation of PPARgamma in human HepG2 cells by real-time PCR method; assay type: functional, cell-based
[2] = tested on: HepG2; experiment: Upregulation of PPARgamma in human HepG2 cells t 0.5 to 12.5 uM by real-time PCR method relative to control; assay type: functional
[3] = biological target: T1, Peroxisome proliferator-activated receptor delta (Homo sapiens) (UniProt Q03181); experiment: Agonist activity at human PPARdelta expressed in CHO cells co-transfected with pGL3-PPRE3-TK-luc assessed as transactivation at 20 ug/ml after 24 hrs by firefly luciferase reporter gene assay; assay type: functional, cell-based
T1 sequence (whole entry): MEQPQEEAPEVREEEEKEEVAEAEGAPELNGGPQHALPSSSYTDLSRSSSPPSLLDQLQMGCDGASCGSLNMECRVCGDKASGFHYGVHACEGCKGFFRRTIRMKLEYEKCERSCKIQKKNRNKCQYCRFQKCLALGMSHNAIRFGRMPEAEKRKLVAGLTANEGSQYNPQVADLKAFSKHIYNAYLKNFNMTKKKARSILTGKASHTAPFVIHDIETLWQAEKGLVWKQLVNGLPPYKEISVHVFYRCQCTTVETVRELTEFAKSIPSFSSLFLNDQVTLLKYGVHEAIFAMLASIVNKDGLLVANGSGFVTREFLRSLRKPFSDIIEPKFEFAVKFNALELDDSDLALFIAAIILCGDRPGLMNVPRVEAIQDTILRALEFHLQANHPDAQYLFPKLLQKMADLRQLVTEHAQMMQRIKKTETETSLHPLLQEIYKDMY

[4] = biological target: T2, Peroxisome proliferator-activated receptor gamma (Homo sapiens) (UniProt P37231); experiment: Agonist activity at PPARgamma in human HepG2 cells assessed as up-regulation of SCD-1 at 0.5 to 12.5 uM by real-time PCR method; assay type: functional, cell-based
T2 sequence (whole entry): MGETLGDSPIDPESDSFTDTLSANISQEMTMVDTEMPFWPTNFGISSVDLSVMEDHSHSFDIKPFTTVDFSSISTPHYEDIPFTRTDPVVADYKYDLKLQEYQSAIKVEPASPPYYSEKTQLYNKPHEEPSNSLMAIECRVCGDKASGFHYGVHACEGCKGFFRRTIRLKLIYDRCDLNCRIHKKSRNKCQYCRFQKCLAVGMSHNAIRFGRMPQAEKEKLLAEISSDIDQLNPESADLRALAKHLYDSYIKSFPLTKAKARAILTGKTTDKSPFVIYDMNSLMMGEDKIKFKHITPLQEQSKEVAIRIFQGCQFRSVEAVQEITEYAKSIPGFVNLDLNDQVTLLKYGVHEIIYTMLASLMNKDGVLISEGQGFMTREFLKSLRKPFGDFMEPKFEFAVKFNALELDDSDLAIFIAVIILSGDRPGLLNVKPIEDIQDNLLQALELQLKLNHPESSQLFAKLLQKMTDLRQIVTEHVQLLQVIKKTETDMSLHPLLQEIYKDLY

[5] = biological target: T3, Peroxisome proliferator-activated receptor gamma (Homo sapiens, UniProt P37231); experiment: Agonist activity at human PPARgamma expressed in CHO cells co-transfected with pGL3-PPRE3-TK-luc assessed as transactivation after 24 hrs by firefly luciferase reporter gene assay; assay type: functional, cell-based
T3 sequence (P37231 whole entry): T2 sequence (whole entry)

[6] = biological target: T4, Peroxisome proliferator-activated receptor alpha (Homo sapiens) (UniProt Q07869); experiment: Agonist activity at human PPARalpha expressed in CHO cells co-transfected with pGL3-PPRE3-TK-luc assessed as transactivation at 20 ug/ml after 24 hrs by firefly luciferase reporter gene assay; assay type: functional, cell-based
T4 sequence (whole entry): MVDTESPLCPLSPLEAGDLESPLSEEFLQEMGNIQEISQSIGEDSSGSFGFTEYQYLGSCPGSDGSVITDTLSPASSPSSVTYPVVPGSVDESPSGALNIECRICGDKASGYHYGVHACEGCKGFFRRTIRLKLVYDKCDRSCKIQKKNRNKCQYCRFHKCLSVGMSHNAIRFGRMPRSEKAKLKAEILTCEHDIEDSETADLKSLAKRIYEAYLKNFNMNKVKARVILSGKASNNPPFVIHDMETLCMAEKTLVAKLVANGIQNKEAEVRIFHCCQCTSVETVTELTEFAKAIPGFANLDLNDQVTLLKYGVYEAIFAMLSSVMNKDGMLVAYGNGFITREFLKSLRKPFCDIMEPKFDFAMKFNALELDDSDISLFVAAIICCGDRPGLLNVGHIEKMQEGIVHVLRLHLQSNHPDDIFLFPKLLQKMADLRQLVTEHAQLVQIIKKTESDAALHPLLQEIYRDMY

Structure (SMILES) | Activity [1] | fold change (FC) [2] | Activity [3] | Activity [4] | EC50 [5] [nM] | Activity [6]
CCC/C=C\C#C/C=C/C(=O)CCCCCCCC(=O)O | Dose-dependent effect | 2.43 | inactive | inactive | 1880 | inactive
CCC/C=C\C#C/C=C/C(O)CCCCCCCC(=O)O (centres undefined) | – | – | inactive | – | > 68400 | inactive
